Where a chain is given by its changes, count along the chain named. “Also recorded” adds a separate entry of the source.
Columns and labels:
wildtype AR = target: T1, wildtype AR (Homo sapiens, UniProt P10275); experiment: AR-responsive firefly luciferase reporter assay in COS7 cells transfected with AR (DHT-stimulated AR activity); type: cell-based; conditions: for inhibition at 12.5 µM: COS-7, 24 h, read-out: % Angtag (12.5 μM vs. 1 nM DHT)
T1 construct: The AR WT construct expresses full-length human AR under cmv promoter control; expressed in transfected cells; host or cells: COS7
T1 sequence (P10275 1-920): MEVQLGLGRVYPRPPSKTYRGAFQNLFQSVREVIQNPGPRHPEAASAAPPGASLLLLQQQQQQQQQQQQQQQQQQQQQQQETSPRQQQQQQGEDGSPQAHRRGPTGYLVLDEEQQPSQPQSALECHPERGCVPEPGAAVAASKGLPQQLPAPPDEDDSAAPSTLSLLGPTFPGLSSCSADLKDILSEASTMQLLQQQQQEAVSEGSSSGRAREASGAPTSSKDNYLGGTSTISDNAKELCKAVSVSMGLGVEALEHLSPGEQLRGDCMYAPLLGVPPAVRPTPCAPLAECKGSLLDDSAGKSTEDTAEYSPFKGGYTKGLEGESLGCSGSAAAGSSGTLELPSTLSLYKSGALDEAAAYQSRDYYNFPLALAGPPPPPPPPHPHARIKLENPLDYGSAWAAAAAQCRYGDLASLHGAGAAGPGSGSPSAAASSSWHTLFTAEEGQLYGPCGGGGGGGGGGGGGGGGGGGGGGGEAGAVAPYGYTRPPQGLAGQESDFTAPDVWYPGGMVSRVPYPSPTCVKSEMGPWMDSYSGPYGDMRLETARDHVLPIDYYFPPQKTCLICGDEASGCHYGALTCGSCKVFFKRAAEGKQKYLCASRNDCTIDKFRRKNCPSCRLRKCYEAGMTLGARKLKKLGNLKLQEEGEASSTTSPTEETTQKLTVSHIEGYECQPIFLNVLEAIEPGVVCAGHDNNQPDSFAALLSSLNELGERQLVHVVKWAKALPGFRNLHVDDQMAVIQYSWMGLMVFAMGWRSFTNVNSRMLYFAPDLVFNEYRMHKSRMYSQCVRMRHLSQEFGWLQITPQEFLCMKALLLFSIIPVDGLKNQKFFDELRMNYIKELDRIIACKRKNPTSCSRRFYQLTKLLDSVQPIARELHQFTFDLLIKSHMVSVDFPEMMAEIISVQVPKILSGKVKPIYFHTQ
Excerpt: FIG. 13. Antagonist activity of generation 4 compounds at 25 micromolar. […] Reporter firefly luciferase is corrected for control Renilla activity.
FIG. 14. Antagonist activity of generation 4 compounds at 1-10 micromolar. […] Reporter firefly luciferase is corrected for control Renilla activity. […]
(§1) The AR-responsive firefly luciferase reporter consists of 4 tandem repeats of the consensus steroid response element cloned upstream of the pGL3-Basic Luciferase vector (Promega). The AR WT construct expresses full-length human AR under cmv promoter control.
(§2) Luciferase activity was determined using the Dual-Luciferase Reporter Assay System (Promega E1910).

AR in C4-2 cells = target: T2, AR in C4-2 cells (Homo sapiens, UniProt P10275, T878A)
T2 sequence (P10275 1-920 T878A): T1 sequence (P10275 1-920) with T878A

AR in VCaP cells [1] = target: T3, AR in VCaP cells (Homo sapiens, UniProt P10275); experiment: Immunofluorescence of AR nuclear localization in VCaP cells (CSS medium); type: cell-based
T3 construct: endogenous in cells; host or cells: VCaP
T3 sequence (P10275 1-920): T1 sequence (P10275 1-920)
Excerpt: (§3) VCaP cells, derived from a CRPC vertebral metastasis, express substantial levels of AR and AR regulated genes such as PSA even when cultured in steroid depleted medium. […] In additional studies focused on chemotype A compounds, we used immunofluorescence to assess AR nuclear localization.

AR in VCaP cells [2] = target: T3, AR in VCaP cells; experiment: Nuclear AR, total AR protein and PSA expression in VCaP cells in steroid depleted medium; type: cell-based
Excerpt: as §3, with “localization. […] In contrast, and consistent with the biochemical fractionation studies noted above, basal nuclear AR was decreased by A61.” for “localization.”
We used the NE-PER Nuclear and Cytoplasmic Extraction Reagents (Pierce 78833).

T877A mutant AR = target: T4, T877A mutant AR (Homo sapiens, UniProt P10275, T878A); experiment: T877A mutant AR luciferase reporter assay; type: cell-based; conditions: HF 100 nM; chemotype A compounds 10 μM
T4 sequence (P10275 1-920 T878A): T1 sequence (P10275 1-920) with T878A
Procedure: FIG. 6. […] (f) W741C mutant AR response to Bic (10 μM), HF (100 nM), and chemotype A compounds (10 μM). Error bars represent S.E.M.
To further validate the predicted positioning of the compounds in the steroid binding pocket, we also examined the effects of established mutations within the LBD.
as §1, §2

VP16-AR = VP16-AR (Homo sapiens, UniProt P10275)
[3] = steroid depleted medium, data not shown

inhibition at 12.5 µM (wildtype AR) [%] | SMILES | other results
50 | CC(=O)c1ccc(S(=O)(=O)NCc2ccc3c(c2)OCO3)cc1OC(F)(F)F [Compound 25, 4-acetyl-N-(benzo[d][1,3]dioxol-5-ylmethyl)-3-(trifluoromethoxy)benzenesulfonamide] | –
60 | CCC(=O)c1cc(S(=O)(=O)NCc2ccc3c(c2)OCO3)ccc1OC(F)(F)F [Compound 29, N-(benzo[d][1,3]dioxol-5-ylmethyl)-3-propionyl-4-(trifluoromethoxy)benzenesulfonamide] | –
20 | NC(=O)c1cc(S(=O)(=O)NCc2ccc3c(c2)OCO3)ccc1OC(F)(F)F [Compound 30, 5-(N-(benzo[d][1,3]dioxol-5-ylmethyl)sulfamoyl)-2-(trifluoromethoxy)benzamide] | –
85 | CS(=O)(=O)c1cc(S(=O)(=O)NCc2ccc3c(c2)OCO3)ccc1OC(F)(F)F [Compound 31, N-(benzo[d][1,3]dioxol-5-ylmethyl)-3-(methylsulfonyl)-4-(trifluoromethoxy)benzenesulfonamide] | –
50 | CC(=O)c1ccc(S(=O)(=O)NCc2ccc3c(c2)OCO3)cc1C(F)(F)F [Compound 32, 4-acetyl-N-(benzo[d][1,3]dioxol-5-ylmethyl)-3-(trifluoromethyl)benzenesulfonamide] | –
20 | CCC(=O)c1ccc(S(=O)(=O)NCc2ccc3c(c2)OCO3)cc1C(F)(F)F [Compound 33, N-(benzo[d][1,3]dioxol-5-ylmethyl)-4-propionyl-3-(trifluoromethyl)benzenesulfonamide] | –

Further lines, the molecule ahead of its results:

SMILES | inhibition at 12.5 µM (wildtype AR) [%] | other results
O=C(CBr)Nc1ccc(S(=O)(=O)NCc2ccc3c(c2)OCO3)cc1 [Compound 13, N-(4-(N-(Benzo[d][1,3]dioxol-5-ylmethyl)sulfamoyl)phenyl) bromoacetamide] | 70 | –
O=C(CCl)Nc1ccc(S(=O)(=O)NCc2ccc3c(c2)OCO3)cc1 [Compound 14, N-(4-(N-(Benzo[d][1,3]dioxol-5-ylmethyl)sulfamoyl)phenyl)chloroacetamide] | 90 | –
CC(=O)N(C(C)=O)c1ccc(S(=O)(=O)NCc2ccc3c(c2)OCO3)cc1 [Compound 15, N-acetyl-N-(4-(N-(Benzo[d][1,3]dioxol-5-ylmethyl)sulfamoyl)phenyl) acetamide] | – | % Angtag (12.5 μM vs. 1 nM DHT) (wildtype AR; 12.5 μM compound vs. 1 nM DHT): 85%
O=C(CBr)Nc1cccc(S(=O)(=O)NCc2ccc3c(c2)OCO3)c1 [Compound 17, N-(3-(N-(Benzo[d][1,3]dioxol-5-ylmethyl)sulfamoyl)phenyl)-2-bromoacetamide] | 20 | –
O=C(Nc1ccc(S(=O)(=O)NCc2ccc3c(c2)OCO3)cc1)C(F)(F)F [Compound 20, N-(4-(N-(Benzo[d][1,3]-dioxol-5-ylmethyl)sulfamoyl)phenyl)-2,2,2-trifluoroacetamide] | 0 | –
CS(=O)(=O)Nc1ccc(S(=O)(=O)NCc2ccc3c(c2)OCO3)cc1 [Compound 21, N-(benzo[d][1,3]dioxol-5-ylmethyl)-4-(methylsulfonamido)benzenesulfonamide] | 70 | –
CC(C)(C)CC(=O)Nc1ccc(S(=O)(=O)NCc2ccc3c(c2)OCO3)cc1 [Compound 22, N-(4-(N-(Benzo[d][1,3]dioxol-5-ylmethyl)sulfamoyl)phenyl)-3,3-dimethylbutanamide] | 70 | –
O=S(=O)(NCc1ccc2c(c1)OCO2)c1ccc(C(F)(F)F)c(N=C=S)c1 [Compound 23, N-(benzo[d][1,3]dioxol-5-ylmethyl)-3-isothiocyanato-4-(trifluoromethyl)benzenesulfonamide] | 75 | –
O=S(=O)(NCc1ccc2c(c1)OCO2)c1ccc(F)cc1F [Compound A61, N-(1,3-benzodioxol-5-ylmethyl)-2,4-difluorobenzenesulfonamide] | – | basal PSA (AR in C4-2 cells; 24 hours (FIG. 10a)): decrease in basal PSA; total AR protein levels (AR in C4-2 cells; 24 hours (FIG. 10a)): noteworthy decrease; PSA expression (AR in C4-2 cells; [3]): reduced; nuclear AR levels (AR in C4-2 cells; [3]): reduced nuclear AR levels; nuclear AR levels by immunofluorescence (AR in VCaP cells [1]): decreased; basal level PSA expression (AR in VCaP cells [2]; 10 μM, steroid depleted medium): further decreasing basal level PSA expression; nuclear AR (AR in VCaP cells [2]; 10 μM, steroid depleted medium): significantly decreased nuclear AR; DHT stimulated PSA expression (AR in VCaP cells [2]; not shown): blocking DHT stimulated PSA expression; potency in antagonizing AR activity in luciferase reporter assays (wildtype AR; relative to initial chemotype A compounds, data not shown): increased potency; also recorded: relatively higher potency
CC(C)(O)C(=O)Nc1ccc([N+](=O)[O-])c(C(F)(F)F)c1 [hydroxyflutamide] | – | agonist activity on T877A mutant AR (T877A mutant AR): strong agonist; VP16-AR reporter (transcriptional) activity (VP16-AR): strong reporter activity
